Laboratory results reported in US10078087B2, “Assays and enhancers of the human delta ENaC sodium channel” (SENOMYX, INC., priority 2001, dated 2018).

Assays:
δβγ hENaC = target: T1, δβγ hENaC (Homo sapiens, UniProt P51168+P51170+P51172); assay: two-electrode voltage clamp of oocytes expressing delta beta gamma hENaC; format: cell-based
T1 construct: expressed in transfected cells; host or cells: Xenopus laevis oocytes injected with cRNA of each subunit
T1 sequence (P51172 1-638 isoform P51172-1): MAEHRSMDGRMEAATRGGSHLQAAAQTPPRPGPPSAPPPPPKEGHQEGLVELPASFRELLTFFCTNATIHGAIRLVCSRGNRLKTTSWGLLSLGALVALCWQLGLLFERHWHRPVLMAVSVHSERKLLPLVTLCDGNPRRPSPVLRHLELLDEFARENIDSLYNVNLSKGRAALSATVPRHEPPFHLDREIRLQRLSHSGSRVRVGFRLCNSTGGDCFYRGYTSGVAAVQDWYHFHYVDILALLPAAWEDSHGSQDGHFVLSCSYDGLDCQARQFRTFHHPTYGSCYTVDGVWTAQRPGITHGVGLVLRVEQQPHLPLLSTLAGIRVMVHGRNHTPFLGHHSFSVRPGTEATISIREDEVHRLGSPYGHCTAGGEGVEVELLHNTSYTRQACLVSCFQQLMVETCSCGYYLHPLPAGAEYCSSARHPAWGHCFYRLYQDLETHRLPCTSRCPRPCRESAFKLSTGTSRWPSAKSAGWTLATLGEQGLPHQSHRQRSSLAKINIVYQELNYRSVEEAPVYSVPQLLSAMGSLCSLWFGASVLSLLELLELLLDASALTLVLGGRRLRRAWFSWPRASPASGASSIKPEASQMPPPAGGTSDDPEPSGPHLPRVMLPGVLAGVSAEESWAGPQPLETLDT
T1 sequence (P51168 1-640): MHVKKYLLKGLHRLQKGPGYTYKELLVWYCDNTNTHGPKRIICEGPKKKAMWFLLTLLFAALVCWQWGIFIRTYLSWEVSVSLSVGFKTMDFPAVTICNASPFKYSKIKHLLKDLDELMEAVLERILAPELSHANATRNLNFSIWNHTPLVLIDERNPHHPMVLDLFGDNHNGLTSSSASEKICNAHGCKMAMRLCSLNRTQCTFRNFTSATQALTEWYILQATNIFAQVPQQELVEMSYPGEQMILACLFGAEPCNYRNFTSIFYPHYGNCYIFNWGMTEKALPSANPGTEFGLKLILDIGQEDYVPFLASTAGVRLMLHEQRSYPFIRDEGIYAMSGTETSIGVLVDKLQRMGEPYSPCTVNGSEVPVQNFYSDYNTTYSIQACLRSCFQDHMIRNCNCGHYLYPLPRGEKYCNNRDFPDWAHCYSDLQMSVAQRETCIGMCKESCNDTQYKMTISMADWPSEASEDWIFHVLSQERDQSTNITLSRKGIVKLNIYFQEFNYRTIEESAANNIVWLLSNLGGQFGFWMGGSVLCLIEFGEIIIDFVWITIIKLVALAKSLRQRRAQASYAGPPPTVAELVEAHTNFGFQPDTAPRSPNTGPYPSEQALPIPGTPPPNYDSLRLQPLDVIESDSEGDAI
T1 sequence (P51170 1-649): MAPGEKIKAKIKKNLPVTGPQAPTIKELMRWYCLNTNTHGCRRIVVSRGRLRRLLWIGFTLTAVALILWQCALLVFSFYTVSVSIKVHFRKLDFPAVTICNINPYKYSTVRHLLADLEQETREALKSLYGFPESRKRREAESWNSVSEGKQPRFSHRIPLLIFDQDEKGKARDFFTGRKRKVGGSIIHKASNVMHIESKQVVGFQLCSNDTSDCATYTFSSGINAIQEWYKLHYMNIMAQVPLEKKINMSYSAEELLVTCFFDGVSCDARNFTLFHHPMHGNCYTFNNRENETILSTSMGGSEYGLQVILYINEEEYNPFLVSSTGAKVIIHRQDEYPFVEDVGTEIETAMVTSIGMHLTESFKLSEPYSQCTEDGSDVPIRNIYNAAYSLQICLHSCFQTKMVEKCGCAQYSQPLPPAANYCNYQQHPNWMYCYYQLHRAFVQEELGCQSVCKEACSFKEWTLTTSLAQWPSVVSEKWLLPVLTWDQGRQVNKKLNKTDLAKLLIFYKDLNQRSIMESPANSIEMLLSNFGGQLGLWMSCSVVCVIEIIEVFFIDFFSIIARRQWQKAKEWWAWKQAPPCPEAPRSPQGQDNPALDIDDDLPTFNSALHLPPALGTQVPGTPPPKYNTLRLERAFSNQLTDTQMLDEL
From the text: α, β, and γ hENaC were cloned from kidney cDNA (Origene, Rockville, Md.) into pcDNA3 (Invitrogen, Carlsbad, Calif.) as described previously (Kellenberger, S and Schild, L. Physiol. Rev. 82:735-767(2002). δ hENaC was cloned from testis cDNA (BD Biosciences Clontech, Palo Alto, Calif.). α hENaC sequence was identical to published sequences from lung and kidney (Rossier et al., Annu. Rev. Physiol. 64:877-897 (2002); Alvarez de la Rosa et al., Annu. Rev. Physiol. 62:573-594 (200). (Genbank accession numbers X76180 and L29007). β hENaC sequence was identical to published sequence from lung Bigiani et al. Bigiani et al., Prog. Biophys. Mol. Biol. 83:193-225 (2003). (Genbank accession number X87159) with the exception of a glycine (nucleotide triplet GGC) to alanine (nucleotide triplet GCC) substitution in our clone at amino acid 314. […] (GenBank accession number BC059391). δ hENaC sequence was identical to published sequence from kidney (Shimkets et al., Cell 79: 407414 (1994)) with the exception of a tyrosine (nucleotide triplet TAC) to cysteine (nucleotide triplet TGC) substitution in our clone at amino acid 532.
ENaC cRNA was generated from linearized plasmids using the mMESSAGE mMACHINE kit with T7 RNA polymerase according to the manufacturer's instructions (Ambion, Austin, Tex.). cRNA quality was checked by denaturing agarose gel electrophoresis and spectrophometric absorbance readings at 260 and 280 nm to ensure that full-length, non-degraded cRNA was generated.
Female Xenopus laevis South African clawed frogs greater than or equal to 9 cm in length were obtained from NASCO (Fort Atkinson, Wis.). Frogs were anesthetized in 0.15% ethyl-3-aminobenzoate methanesulfonate (Sigma, St. Louis, Mo.) in distilled water and placed on ice. […]
Unless noted otherwise, ENaC function was measured using the two-electrode voltage clamp technique on an OpusXpress 6000A parallel oocyte voltage clamp system twenty-four hours post-microinjection (Axon Instruments, Union City, Calif.). […]

[1] = system: human salty taste perception; details: humans; concentrations that specifically modulate ENaC function; cited from earlier work
αβγ hENaC = target: T2, αβγ hENaC (Homo sapiens, UniProt P37088+P51168+P51170); assay: two-electrode voltage clamp of oocytes expressing alpha beta gamma hENaC; format: cell-based
T2 construct: expressed in transfected cells; host or cells: Xenopus laevis oocytes injected with cRNA of each subunit
T2 sequence (P37088 1-669): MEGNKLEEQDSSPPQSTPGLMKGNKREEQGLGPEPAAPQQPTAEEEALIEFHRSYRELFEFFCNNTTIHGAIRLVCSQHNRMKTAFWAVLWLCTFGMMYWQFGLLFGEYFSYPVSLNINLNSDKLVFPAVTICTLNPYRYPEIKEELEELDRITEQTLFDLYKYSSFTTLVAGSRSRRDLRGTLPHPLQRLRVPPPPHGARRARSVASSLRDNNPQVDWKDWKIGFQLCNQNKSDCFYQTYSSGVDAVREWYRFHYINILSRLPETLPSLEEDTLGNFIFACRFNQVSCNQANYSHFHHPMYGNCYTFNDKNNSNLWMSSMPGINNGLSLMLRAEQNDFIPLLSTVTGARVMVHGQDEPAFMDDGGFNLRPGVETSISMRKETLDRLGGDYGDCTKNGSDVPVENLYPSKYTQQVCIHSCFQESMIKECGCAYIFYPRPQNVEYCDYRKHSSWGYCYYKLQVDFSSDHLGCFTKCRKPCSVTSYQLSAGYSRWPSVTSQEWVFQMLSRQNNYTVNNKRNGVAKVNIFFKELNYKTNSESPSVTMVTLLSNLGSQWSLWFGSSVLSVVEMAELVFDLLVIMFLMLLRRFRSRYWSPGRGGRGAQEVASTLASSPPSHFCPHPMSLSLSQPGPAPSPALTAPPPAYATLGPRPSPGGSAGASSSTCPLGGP
T2 sequence (P51168 1-640): T1 sequence (P51168 1-640)
T2 sequence (P51170 1-649): T1 sequence (P51170 1-649)
From the text: α, β, and γ hENaC were cloned from kidney cDNA (Origene, Rockville, Md.) into pcDNA3 (Invitrogen, Carlsbad, Calif.) as described previously (Kellenberger, S and Schild, L. Physiol. Rev. 82:735-767(2002). δ hENaC was cloned from testis cDNA (BD Biosciences Clontech, Palo Alto, Calif.). α hENaC sequence was identical to published sequences from lung and kidney (Rossier et al., Annu. Rev. Physiol. 64:877-897 (2002); Alvarez de la Rosa et al., Annu. Rev. Physiol. 62:573-594 (200). (Genbank accession numbers X76180 and L29007). β hENaC sequence was identical to published sequence from lung Bigiani et al. Bigiani et al., Prog. […] (Genbank accession number X87159) with the exception of a glycine (nucleotide triplet GGC) to alanine (nucleotide triplet GCC) substitution in our clone at amino acid 314. […]
ENaC cRNA was generated from linearized plasmids using the mMESSAGE mMACHINE kit with T7 RNA polymerase according to the manufacturer's instructions (Ambion, Austin, Tex.). cRNA quality was checked by denaturing agarose gel electrophoresis and spectrophometric absorbance readings at 260 and 280 nm to ensure that full-length, non-degraded cRNA was generated. […]

[2] = system: human salty taste perception; assay: effect of amiloride on human salty taste perception; format: in vivo; details: humans; levels ~300-fold above IC50 for αβγ ENaC (~10-fold over IC50 for δβγ ENaC) in oocytes
[3] = compound concentration not given, N = 5-7 oocytes

Q: Which results are given for `N=C(N)NC(=O)c1nc(Cl)c(N)nc1N` [amiloride]?
A: inhibition at 10 µM (δβγ hENaC): > 90%; IC50 (δβγ hENaC; Xenopus oocytes, n=10, mean±SEM): 2700 ± 300 nM; reduction of intensity of sodium chloride taste [1]: 15-20%; inhibition at 1 µM (αβγ hENaC): > 90%; effect on perceived salt intensity [2]: did not elicit a significant effect

Q: Which results are given for Choline C1?
A: % Enhance δβγ (δβγ hENaC; [3]): 52 +/− 5%; % Enhance αβγ (αβγ hENaC; [3]): 53 +/− 17%
